Results published in patent US11897862B2 (Gilead Sciences, Inc., priority 2022, dated 2024).

How the values were obtained:
Type in all cases: cell-based
[1] = molecular target: T1, IKZF2 (Homo sapiens, UniProt Q96SW2+Q9UKS7); assay: HEK293 HiBiT in vitro degradation of IKZF2; set-up: expressed in transfected cells; conditions: for DC50 / IKZF2 Dmax: HEK293 HiBiT; for DC50: 18-24 hr incubation, normalized to DMSO control, read-out: IKZF2 EC50; for IKZF2 Dmax / Dmax: maximum degradation at the highest concentration tested; for Dmax: HEK293, HEK293 HiBiT
How it was run: (§1)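 Read-out: Nano-Glo lytic HiBiT luminescence after 18-24 h compound exposure at 37 °C, fitted to EC50 and Dmax. Cells were Flp-In T-REx HEK293 expressing linker-HiBiT fused to the C-terminus of each target, doxycycline-induced ([…] final) overnight beforehand.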
Target sequence in this assay (Q9UKS7 1-500 isoform Q9UKS7-2): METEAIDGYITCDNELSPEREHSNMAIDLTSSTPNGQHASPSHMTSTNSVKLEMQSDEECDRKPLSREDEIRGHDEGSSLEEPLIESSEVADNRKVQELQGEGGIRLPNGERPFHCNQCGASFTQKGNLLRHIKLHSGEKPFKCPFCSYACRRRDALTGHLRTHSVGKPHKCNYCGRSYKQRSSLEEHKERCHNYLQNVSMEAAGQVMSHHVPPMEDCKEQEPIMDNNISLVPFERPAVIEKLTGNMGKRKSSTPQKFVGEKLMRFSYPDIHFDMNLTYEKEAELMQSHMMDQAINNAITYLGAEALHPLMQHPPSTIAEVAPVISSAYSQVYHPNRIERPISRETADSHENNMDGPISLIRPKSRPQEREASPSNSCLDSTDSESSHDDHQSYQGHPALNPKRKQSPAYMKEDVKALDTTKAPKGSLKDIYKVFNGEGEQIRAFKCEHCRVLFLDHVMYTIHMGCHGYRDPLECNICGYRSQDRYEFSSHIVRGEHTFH
Target sequence in this assay (Q96SW2 whole entry, the tested form may be a part): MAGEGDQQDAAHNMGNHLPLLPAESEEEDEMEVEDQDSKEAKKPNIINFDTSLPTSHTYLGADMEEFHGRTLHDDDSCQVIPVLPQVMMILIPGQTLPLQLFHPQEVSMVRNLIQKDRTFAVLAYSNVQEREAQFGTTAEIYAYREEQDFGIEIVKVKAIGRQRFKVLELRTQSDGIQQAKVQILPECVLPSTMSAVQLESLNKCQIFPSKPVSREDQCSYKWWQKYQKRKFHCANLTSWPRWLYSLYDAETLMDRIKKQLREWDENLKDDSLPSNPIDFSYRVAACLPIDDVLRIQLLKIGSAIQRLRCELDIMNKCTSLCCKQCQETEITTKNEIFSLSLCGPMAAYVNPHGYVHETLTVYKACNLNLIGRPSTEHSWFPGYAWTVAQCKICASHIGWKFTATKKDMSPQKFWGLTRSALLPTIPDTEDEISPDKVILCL
Target sequence in this assay (Q16531 whole entry partner, the tested form may be a part): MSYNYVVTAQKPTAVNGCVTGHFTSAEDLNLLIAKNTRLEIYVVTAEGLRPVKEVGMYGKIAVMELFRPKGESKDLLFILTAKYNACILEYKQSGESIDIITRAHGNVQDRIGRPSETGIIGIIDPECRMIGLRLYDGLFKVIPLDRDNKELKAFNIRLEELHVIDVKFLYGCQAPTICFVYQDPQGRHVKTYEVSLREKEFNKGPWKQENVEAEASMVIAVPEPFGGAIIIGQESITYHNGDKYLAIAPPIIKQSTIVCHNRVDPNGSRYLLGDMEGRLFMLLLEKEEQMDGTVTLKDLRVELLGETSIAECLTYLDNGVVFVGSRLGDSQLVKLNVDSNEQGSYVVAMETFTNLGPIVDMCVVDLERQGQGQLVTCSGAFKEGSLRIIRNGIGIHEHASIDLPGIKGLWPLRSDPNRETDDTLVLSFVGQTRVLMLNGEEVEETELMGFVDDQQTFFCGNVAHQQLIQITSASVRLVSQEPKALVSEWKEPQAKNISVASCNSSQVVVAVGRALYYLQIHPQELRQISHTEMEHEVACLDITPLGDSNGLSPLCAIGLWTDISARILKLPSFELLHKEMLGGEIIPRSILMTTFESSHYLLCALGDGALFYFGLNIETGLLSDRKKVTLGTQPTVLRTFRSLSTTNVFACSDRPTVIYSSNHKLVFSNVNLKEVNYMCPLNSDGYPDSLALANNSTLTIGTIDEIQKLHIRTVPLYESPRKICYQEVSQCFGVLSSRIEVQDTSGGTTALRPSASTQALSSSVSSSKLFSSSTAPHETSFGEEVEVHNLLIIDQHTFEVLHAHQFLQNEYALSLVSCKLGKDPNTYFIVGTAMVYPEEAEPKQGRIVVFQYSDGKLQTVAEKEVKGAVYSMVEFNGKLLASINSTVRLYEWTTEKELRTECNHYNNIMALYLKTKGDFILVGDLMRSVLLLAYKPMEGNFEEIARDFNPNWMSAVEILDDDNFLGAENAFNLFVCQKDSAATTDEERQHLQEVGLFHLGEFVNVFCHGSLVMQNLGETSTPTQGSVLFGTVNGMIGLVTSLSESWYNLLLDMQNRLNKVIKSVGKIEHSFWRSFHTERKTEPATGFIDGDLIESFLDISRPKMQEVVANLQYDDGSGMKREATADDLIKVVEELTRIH

[2] = molecular target: T2, IKZF1 (Homo sapiens, UniProt Q13422+Q96SW2); assay: HEK293 HiBiT in vitro degradation of IKZF1; conditions: for DC50: 18-24 hr incubation, normalized to DMSO control, read-out: IKZF1 EC50; for Dmax: HEK293, HEK293 HiBiT
T2 construct: expressed in transfected cells
How it was run: as §1

[3] = molecular target: T1, IKZF2; assay: Human whole blood IKZF2 degradation (flow cytometry, CD4/CD25/Foxp3+ Treg cells); set-up: endogenous in cells; conditions: 24 hrs incubation, IKZF2 MFI in CD4/CD25/Foxp3+ Treg cells, flow cytometry; for DC50: read-out: IKZF2 EC50
Procedure: In vitro IKZF2 potency was assessed in human whole blood using a fluorescence activated cell sorting assay. 50 μL of freshly collected blood from healthy human volunteers was incubated with Immunocult CD3/CD28 activator (Stemcell Technologies) and solution of testing compounds (serially-diluted) for 24 hrs hours at 37° C. in 384 well plates. The treated red blood cells were removed by adding lysis buffer (BD cat #558049) then the cells were fixed, permeabilized, and stained with anti-CD4 (BD cat #564419), anti-Foxp3 (Invitrogen cat #48-4777-42), anti-IKZF1 (Cell Signaling Tech. cat #33462S), and anti-IKZF2(Cell Signaling Tech. cat #65432S) antibodies. The median fluorescent intensity (MFI) of IKZF2 signal from CD4/CD25/Foxp3+ Treg cells and MFI of IKZF1 signal from CD4+ T cells were quantified in the same samples by flow cytometry using an Attune instrument. EC50 and Dmax of each compound was determined by plotting the MFI and DMSO treated wells were used as control. Asterisks (*) indicate examples for which data represents an average of n≥3 repeat experiments.
Target sequence in this assay (Q9UKS7 whole entry, the tested form may be a part): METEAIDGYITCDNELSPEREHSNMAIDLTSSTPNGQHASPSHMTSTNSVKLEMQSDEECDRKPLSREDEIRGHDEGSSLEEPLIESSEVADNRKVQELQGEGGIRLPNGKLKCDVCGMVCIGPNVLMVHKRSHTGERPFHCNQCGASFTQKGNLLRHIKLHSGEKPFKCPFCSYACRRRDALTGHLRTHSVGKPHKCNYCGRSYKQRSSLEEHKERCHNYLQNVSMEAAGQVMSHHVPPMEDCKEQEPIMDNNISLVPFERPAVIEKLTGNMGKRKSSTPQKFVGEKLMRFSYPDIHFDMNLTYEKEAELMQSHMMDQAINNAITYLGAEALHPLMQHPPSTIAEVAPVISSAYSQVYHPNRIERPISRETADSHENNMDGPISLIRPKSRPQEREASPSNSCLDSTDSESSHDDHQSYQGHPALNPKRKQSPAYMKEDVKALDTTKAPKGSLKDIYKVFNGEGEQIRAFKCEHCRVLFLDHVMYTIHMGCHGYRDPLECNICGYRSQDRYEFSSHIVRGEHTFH
Target sequence in this assay (Q96SW2 whole entry, the tested form may be a part): as the sequence (Q96SW2 whole entry, the tested form may be a part) above
Target sequence in this assay (Q16531 whole entry partner, the tested form may be a part): as the sequence (Q16531 whole entry partner, the tested form may be a part) above

[4] = maximum degradation at the highest concentration tested

T2 sequence (Q13422 whole entry): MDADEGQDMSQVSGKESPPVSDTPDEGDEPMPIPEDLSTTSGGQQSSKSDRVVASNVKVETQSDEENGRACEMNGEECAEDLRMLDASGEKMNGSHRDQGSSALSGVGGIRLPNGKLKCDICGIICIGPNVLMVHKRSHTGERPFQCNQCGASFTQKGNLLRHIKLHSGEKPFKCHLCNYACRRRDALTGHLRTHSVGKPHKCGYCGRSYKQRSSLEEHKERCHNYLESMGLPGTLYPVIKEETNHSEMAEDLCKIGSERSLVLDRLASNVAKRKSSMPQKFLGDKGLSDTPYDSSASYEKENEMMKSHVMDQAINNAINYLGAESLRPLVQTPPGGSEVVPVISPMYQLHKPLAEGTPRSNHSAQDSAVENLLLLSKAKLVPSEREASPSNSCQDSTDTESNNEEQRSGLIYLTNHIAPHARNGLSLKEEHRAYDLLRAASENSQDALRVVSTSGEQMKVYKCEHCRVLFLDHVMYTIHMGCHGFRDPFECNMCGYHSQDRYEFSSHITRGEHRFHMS
T2 sequence (Q96SW2 whole entry): as the sequence (Q96SW2 whole entry, the tested form may be a part) above
T2 sequence (Q16531 whole entry partner): as the sequence (Q16531 whole entry partner, the tested form may be a part) above

Row | DC50 [1] [nM] | IKZF2 Dmax [1] [%] | DC50 ([2]; HEK293 HiBiT) [nM] | IKZF1 Dmax ([2]; HEK293 HiBiT, maximum degradation at the highest concentration tested) [%] | Dmax [3] [%] | DC50 [3] [nM] | Dmax [1] [%] | Dmax [2, 4] [%] | Structure (SMILES)
1 | 2 | 96 | 57 | 45 | 97 | 2 |  |  | O=C1CCC(N2Cc3cc(C[C@H]4CCCC[C@@H]4NC4CCC(C(F)(F)F)CC4)ccc3C2=O)C(=O)N1 (single isomer, unassigned) [Example 122]
2 | 4 |  | > 1000 |  | 97 | 6 | 97 |  | CC(N[C@H]1CCCC[C@@H]1Cc1ccc2c(c1)CN(C1CCC(=O)NC1=O)C2=O)C1CC(F)(F)C1 (single isomer, unassigned) [Example 136]
3 | 11 |  | > 1000 |  |  |  | 95 |  | CC(N[C@H]1CCCC[C@@H]1Cc1ccc2c(c1)CN(C1CCC(=O)NC1=O)C2=O)C1(C(F)F)CC1 (some centres unmarked) [Example 311]
4 | 9 | 95 | > 1000 |  |  |  |  |  | CC(N[C@H]1CCCC[C@@H]1Cc1ccc2c(c1)CN(C1CCC(=O)NC1=O)C2=O)C1(C(F)F)CC1 (some centres unmarked) [Example 312]
5 | 27 |  | > 1000 |  |  |  | 88 |  | O=C1CCC(N2Cc3cc(C[C@H]4CC(F)(F)CC[C@@H]4NC4CCCCC4)ccc3C2=O)C(=O)N1 (stereo partly drawn) [Example 313, 3-(5-(((1S,2S)-2-(cyclohexylamino)-5,5-difluorocyclohexyl)methyl)-1-oxoisoindolin-2-yl)piperidine-2,6-dione]
6 | 90 |  | 653 |  |  |  | 70 | 30 | O=C1CCC(N2Cc3cc(C[C@H]4C=C(F)CC[C@@H]4NC4CCCCC4)ccc3C2=O)C(=O)N1 (stereo partly drawn) [Example 314, 3-(5-(((1S,6S)-6-(cyclohexylamino)-3-fluorocyclohex-2-en-1-yl)methyl)-1-oxoisoindolin-2-yl)piperidine-2,6-dione]
7 | 54 |  | > 1000 |  |  |  | 72 |  | CCC(C)(C)N[C@H]1CCCC[C@@H]1Cc1ccc2c(c1)CN(C1CCC(=O)NC1=O)C2=O (stereo partly drawn) [Example 322, 3-(1-oxo-5-(((1R,2S)-2-(tert-pentylamino)cyclohexyl)methyl)isoindolin-2-yl)piperidine-2,6-dione]
8 | 3 |  | 50 |  |  |  | 96 | 45 | O=C1CCC(N2Cc3cc(C[C@H]4CCCC[C@@H]4NC4CCC(OC(F)F)CC4)ccc3C2=O)C(=O)N1 (stereo partly drawn) [Example 323, 3-(5-(((1R,2S)-2-((4-(difluoromethoxy)cyclohexyl)amino)cyclohexyl)methyl)-1-oxoisoindolin-2-yl)piperidine-2,6-dione]
9 | 76 |  | > 1000 |  |  |  | 55 |  | O=C1CCC(N2Cc3cc(C[C@H]4CCCCC[C@@H]4NC4CCC(F)(F)CC4)ccc3C2=O)C(=O)N1 (some centres unmarked) [Example 340]
10 | 21 |  | > 1000 |  |  |  | 87 |  | O=C1CCC(N2Cc3cc(C[C@H]4C[C@@H](F)CC[C@@H]4NC4CCC(F)(F)CC4)ccc3C2=O)C(=O)N1 (some centres unmarked) [Example 341]
11 | 18 |  | > 1000 |  |  |  | 86 |  | O=C1CCC(N2Cc3cc(C[C@H]4C[C@@H](F)CC[C@@H]4NC4CCCCC4)ccc3C2=O)C(=O)N1 (some centres unmarked) [Example 342]
12 | 3 |  | 30 |  |  |  | 93 | 32 | O=C1CCC(N2Cc3cc(C[C@H]4CC[C@@H](F)C[C@@H]4NC4CCC(F)(F)CC4)ccc3C2=O)C(=O)N1 (some centres unmarked) [Example 354]
13 | 5 |  | > 1000 |  |  |  | 91 |  | O=C1CCC(N2Cc3cc(C[C@H]4CC[C@@H](F)C[C@@H]4NC4CCCCC4)ccc3C2=O)C(=O)N1 (some centres unmarked) [Example 355]
14 | 4 |  | 48 |  |  |  | 99 | 65 | O=C1CCC(N2Cc3cc(C[C@H]4CCCC[C@@H]4NC4CCc5c(C(F)(F)F)n[nH]c5C4)ccc3C2=O)C(=O)N1 (some centres unmarked) [Example 375]
15 | 3 |  | 44 |  |  |  | 96 | 62 | O=C1CCC(N2Cc3cc(C[C@H]4CCCC[C@@H]4NC4CCC(c5ccccn5)CC4)ccc3C2=O)C(=O)N1 (some centres unmarked) [Example 379]
16 | 400 |  | > 1000 |  |  |  | 71 |  | O=C1CCC(N2Cc3cc(C[C@H]4CCCC[C@@H]4NC4CCC(n5cnnc5)CC4)ccc3C2=O)C(=O)N1 (some centres unmarked) [Example 380]

The next lines start with the compound.

Row | Structure (SMILES) | DC50 [1] [nM] | IKZF2 Dmax [1] [%] | DC50 ([2]; HEK293 HiBiT) [nM] | IKZF1 Dmax ([2]; HEK293 HiBiT, maximum degradation at the highest concentration tested) [%] | Dmax [3] [%] | DC50 [3] [nM] | Dmax [1] [%] | Dmax [2, 4] [%]
17 | CC(N[C@H]1CCCC[C@@H]1Cc1ccc2c(c1)CN(C1CCC(=O)NC1=O)C2=O)C1(C#N)CC1 (single isomer, unassigned) [Example 256] |  |  | > 1000 |  | 95 | 10 |  | 
18 | CCC(C)N[C@H]1CCCO[C@@H]1Cc1ccc2c(c1F)CN(C1CCC(=O)NC1=O)C2=O (stereo partly drawn) [Example 304, 3-(5-(((2R,3S)-3-(sec-butylamino)tetrahydro-2H-pyran-2-yl)methyl)-4-fluoro-1-oxoisoindolin-2-yl)piperidine-2,6-dione] | 3 |  | > 1000 |  |  |  | 97 | 
19 | CC(C)C(C)N[C@H]1CCCO[C@@H]1Cc1ccc2c(c1F)CN(C1CCC(=O)NC1=O)C2=O (some centres unmarked) [Example 306] | 10 |  | > 1000 |  |  |  | 95 | 
20 | CCC(C)N[C@H]1CCCC[C@@H]1Cc1ccc2c(c1F)CN(C1CCC(=O)NC1=O)C2=O (some centres unmarked) [Example 307] | 1 |  | 111 |  |  |  | 96 | 40
21 | CC(C)N[C@H]1CCC(F)(F)C[C@@H]1Cc1ccc2c(c1)CN(C1CCC(=O)NC1=O)C2=O (some centres unmarked) [Example 315] | 28 |  | > 1000 |  |  |  | 88 | 
22 | CC(N[C@H]1CCCO[C@@H]1Cc1ccc2c(c1F)CN(C1CCC(=O)NC1=O)C2=O)C1COC1 (some centres unmarked) [Example 318] | 20 |  | > 1000 |  |  |  | 96 | 
23 | CC(N[C@H]1CCCO[C@@H]1Cc1ccc2c(c1F)CN(C1CCC(=O)NC1=O)C2=O)C1COC1 (some centres unmarked) [Example 319] | 24 | 95 | > 1000 |  |  |  |  | 
24 | CC(CCC(F)F)N[C@H]1CCCO[C@@H]1Cc1ccc2c(c1F)CN(C1CCC(=O)NC1=O)C2=O (stereo partly drawn) [Example 320, 3-(5-(((2R,3S)-3-((5,5-difluoropentan-2-yl)amino)tetrahydro-2H-pyran-2-yl)methyl)-4-fluoro-1-oxoisoindolin-2-yl)piperidine-2,6-dione] | 11 |  | > 1000 |  |  |  | 93 | 
25 | CC(CCCC(F)(F)F)N[C@H]1CCCO[C@@H]1Cc1ccc2c(c1F)CN(C1CCC(=O)NC1=O)C2=O (some centres unmarked) [Example 321] | 6 |  | 371 |  |  |  | 94 | 44
26 | O=C1CCC(N2Cc3cc(C[C@H]4CCC(F)(F)C[C@@H]4NC4CCC(F)(F)CC4)ccc3C2=O)C(=O)N1 (some centres unmarked) [Example 345] | 4 |  | 174 |  |  |  | 97 | 56
27 | O=C1CC[C@H](N2Cc3cc(C[C@H]4CCCC[C@@H]4NC4CCC(F)(F)CC4)cc(F)c3C2=O)C(=O)N1 [Example 347] | 38 |  | > 1000 |  |  |  | 75 | 
28 | CC(C)N[C@H]1CC(F)(F)CC[C@@H]1Cc1ccc2c(c1)CN(C1CCC(=O)NC1=O)C2=O (some centres unmarked) [Example 348] | 2 |  | 62 |  |  |  | 97 | 39
29 | CC(N[C@H]1CC(F)(F)CC[C@@H]1Cc1ccc2c(c1)CN(C1CCC(=O)NC1=O)C2=O)C1CCOCC1 (some centres unmarked) [Example 349] | 11 |  | 89 |  |  |  | 92 | 42
30 | O=C1CCC(N2Cc3cc(C[C@H]4CCCC[C@@H]4NC4CCC(F)(F)CC4)c(F)cc3C2=O)C(=O)N1 (some centres unmarked) [Example 350] | 10 |  | 124 |  |  |  | 94 | 50
31 | O=C1CC[C@H](N2Cc3c(ccc(C[C@H]4OCCC[C@@H]4N[C@H]4CC[C@@H](C(F)F)CC4)c3F)C2=O)C(=O)N1 [Example 368] | 8 |  | > 1000 |  |  |  | 96 | 
32 | O=C1CCC(N2Cc3c(ccc(C[C@H]4OCCC[C@@H]4NC4CCc5cn[nH]c5C4)c3F)C2=O)C(=O)N1 (some centres unmarked) [Example 374] | 58 |  | > 1000 |  |  |  | 98 | 
33 | C=C1CC[C@H](N)[C@@H](Cc2ccc3c(c2)CN(C2CCC(=O)NC2=O)C3=O)C1 (stereo partly drawn) [Example 381, 3-(5-(((1R,2S)-2-amino-5-methylenecyclohexyl)methyl)-1-oxoisoindolin-2-yl)piperidine-2,6-dione] | 207 |  | 108 |  |  |  | 65 | 29
34 | O=C1CCC(N2Cc3c(ccc(O[C@H]4CCCC[C@@H]4NC4CCC(F)(F)CC4)c3F)C2=O)C(=O)N1 (some centres unmarked) [Reference Compound B-1, reference compound] | 6 |  | > 1000 |  |  |  | 97 | 
